Patent US20230102554A1 (GB002, INC., priority 2019, published 2023)

Key:
[1] = target: T1, Human PDGFRα, cytoplasmic domain (GST-PDGFRα) (Homo sapiens, UniProt P16234); experiment: Human PDGFRα biochemical inhibition assay (off-chip Mobility Shift Assay)
T1 construct: made in house

[2] = target: T2, Human PDGFRβ, cytoplasmic domain (GST-PDGFRβ) (Homo sapiens, UniProt P09619); experiment: Human PDGFRβ biochemical inhibition assay (off-chip Mobility Shift Assay)
T2 construct: made in house
Outline: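 GST-tagged cytoplasmic domain (aa 557-1106) from baculovirus was incubated 1 h at room temperature with compound, CSKtide, ATP at Km and Mg²⁺ in HEPES buffer, pH 7.5. Phosphorylated and unphosphorylated peptide were separated by off-chip mobility shift, and the product ratio P/(P+S) gave percent inhibition.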

T1 sequence (P16234 550-1089 T674I): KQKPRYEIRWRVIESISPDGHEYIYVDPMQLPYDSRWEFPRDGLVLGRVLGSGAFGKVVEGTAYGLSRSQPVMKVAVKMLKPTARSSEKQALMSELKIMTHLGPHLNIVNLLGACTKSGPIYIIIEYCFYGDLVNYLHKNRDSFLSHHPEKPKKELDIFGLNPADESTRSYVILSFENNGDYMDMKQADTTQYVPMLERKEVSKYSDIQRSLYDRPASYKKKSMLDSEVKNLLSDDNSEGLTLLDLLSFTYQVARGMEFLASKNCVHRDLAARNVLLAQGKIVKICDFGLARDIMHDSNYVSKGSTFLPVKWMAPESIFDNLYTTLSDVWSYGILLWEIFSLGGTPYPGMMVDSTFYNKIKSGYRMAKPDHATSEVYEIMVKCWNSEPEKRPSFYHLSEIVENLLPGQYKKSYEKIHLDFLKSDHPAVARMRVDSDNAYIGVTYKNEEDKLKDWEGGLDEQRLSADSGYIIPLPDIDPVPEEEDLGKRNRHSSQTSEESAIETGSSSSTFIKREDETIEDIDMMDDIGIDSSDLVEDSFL
T2 sequence (P09619 with tags, fused parts or gaps): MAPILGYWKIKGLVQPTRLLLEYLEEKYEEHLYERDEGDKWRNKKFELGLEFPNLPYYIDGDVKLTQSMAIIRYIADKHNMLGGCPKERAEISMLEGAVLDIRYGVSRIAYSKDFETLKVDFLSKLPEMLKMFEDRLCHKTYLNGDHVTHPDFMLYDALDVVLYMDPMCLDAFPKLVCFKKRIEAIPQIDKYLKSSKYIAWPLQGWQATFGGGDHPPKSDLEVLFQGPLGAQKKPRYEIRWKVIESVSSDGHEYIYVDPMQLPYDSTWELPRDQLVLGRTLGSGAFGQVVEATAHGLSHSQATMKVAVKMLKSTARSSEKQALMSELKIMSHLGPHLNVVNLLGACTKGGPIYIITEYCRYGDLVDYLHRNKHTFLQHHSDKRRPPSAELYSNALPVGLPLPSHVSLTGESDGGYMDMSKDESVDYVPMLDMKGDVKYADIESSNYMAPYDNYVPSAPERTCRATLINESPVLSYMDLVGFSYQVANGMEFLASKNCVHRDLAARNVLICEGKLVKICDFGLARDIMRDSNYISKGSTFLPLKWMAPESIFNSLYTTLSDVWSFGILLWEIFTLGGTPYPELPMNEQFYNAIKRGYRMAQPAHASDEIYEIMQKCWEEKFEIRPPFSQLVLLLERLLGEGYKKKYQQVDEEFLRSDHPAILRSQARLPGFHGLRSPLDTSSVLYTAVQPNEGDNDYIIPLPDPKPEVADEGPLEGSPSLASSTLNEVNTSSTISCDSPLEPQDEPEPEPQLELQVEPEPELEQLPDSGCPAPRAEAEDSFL

CCn1cc2ncc(N[C@@H](C)c3cccc(NC(=O)c4cnc(N5CCCC5)s4)c3)nc2n1 [Compound 326, (S)-N-(3-(1-((2-ethyl-2H-pyrazolo[3,4-b]pyrazin-6-yl)amino)ethyl)phenyl)-2-(pyrrolidin-1-yl)thiazole-5-carboxamide]
IC50 [1]: < 300 nM
IC50 [2]: < 300 nM

Cc1n[nH]c2ncc(N[C@@H](C)c3cccc(NC(=O)c4ccc(C(F)F)s4)c3)nc12 [Compound 539, (S)-5-(difluoromethyl)-N-(3-(1-((3-methyl-1H-pyrazolo[3,4-b]pyrazin-5-yl)amino)ethyl)phenyl)thiophene-2-carboxamide]
IC50 [1]: < 300 nM
IC50 [2]: < 300 nM

CCn1cc2ncc(N[C@@H](C)c3cccc(NC(=O)c4ccc(C=O)c(C)c4)c3)nc2n1 [Compound 401, (S)-N-(3-(1-((2-ethyl-2H-pyrazolo[3,4-b]pyrazin-6-yl)amino)ethyl)phenyl)-4-formyl-3-methylbenzamide]
IC50 [1]: < 300 nM
IC50 [2]: < 300 nM

CCn1cc2ncc(N[C@@H](C)c3cccc(NC(=O)c4ccc(CN5CC[C@@H](O)C5)c(Cl)c4)c3)nc2n1 [Compound 483, 3-chloro-N-(3-((S)-1-((2-ethyl-2H-pyrazolo[3,4-b]pyrazin-6-yl)amino)ethyl)phenyl)-4-(((R)-3-hydroxypyrrolidin-1-yl)methyl) benzamide]
IC50 [1]: < 300 nM
IC50 [2]: < 300 nM

C[C@H](Nc1cnc2cnn(C)c2n1)c1cccc(NC(=O)c2cncc(C(F)F)c2)c1 [Compound 103, (S)-5-(difluoromethyl)-N-(3-(1-((1-methyl-1H-pyrazolo[3,4-b]pyrazin-6-yl)amino)ethyl)phenyl)nicotinamide]
IC50 [1]: < 300 nM
IC50 [2]: < 300 nM

CCn1cc2ncc(N[C@@H](C)c3cc(NC(=O)Cc4ccc(C)c(N5CCN(C)CC5)c4)ccc3C)nc2n1 [Compound 680, (S)-N-(3-(1-((2-ethyl-2H-pyrazolo[3,4-b]pyrazin-6-yl)amino)ethyl)-4-methylphenyl)-2-(4-methyl-3-(4-methylpiperazin-1-yl)phenyl) acetamide]
IC50 [1]: < 300 nM
IC50 [2]: < 300 nM

CC(C)c1cc(C(=O)Nc2cccc([C@H](C)Nc3cnc4cnn(C)c4n3)c2)n(C)n1 [Compound 165, (S)-3-isopropyl-1-methyl-N-(3-(1-((1-methyl-1H-pyrazolo[3,4-6]pyrazin-6-yl)amino)ethyl)phenyl)-1H-pyrazole-5-carboxamide]
IC50 [1]: < 300 nM
IC50 [2]: < 300 nM

Cc1ccc(C(=O)Nc2cccc([C@H](C)Nc3cnc4cnn(C)c4n3)c2)s1 [Compound 133, (S)-5-methyl-N-(3-(1-((1-methyl-1H-pyrazolo[3,4-b]pyrazin-6-yl)amino)ethyl)phenyl)thiophene-2-carboxamide]
IC50 [1]: < 300 nM
IC50 [2]: < 300 nM

C[C@H](Nc1cnc2cn(CC3CNC3)nc2n1)c1cc(NC(=O)c2cnc(C(F)(F)F)s2)ccc1F [Compound 391, (S)-N-(3-(1-((2-(azetidin-3-ylmethyl)-2H-pyrazolo[3,4-b]pyrazin-6-yl)amino)ethyl)-4-fluorophenyl)-2-(trifluoromethyl)thiazole-5-carboxamide]
IC50 [1]: < 300 nM
IC50 [2]: < 300 nM

Cc1cc(C(=O)Nc2cccc([C@H](C)Nc3cnc4cnn(C)c4n3)c2)cnc1Cl [Compound 200, (S)-6-chloro-5-methyl-N-(3-(1-((1-methyl-1H-pyrazolo[3,4-b]pyrazin-6-yl)amino)ethyl)phenyl)nicotinamide]
IC50 [1]: < 300 nM
IC50 [2]: < 300 nM

CCn1cc2ncc(N[C@@H](C)c3cc(NC(=O)c4cncc(C)c4)ccc3C)nc2n1 [Compound 510, (S)-N-(3-(1-((2-ethyl-2H-pyrazolo[3,4-b]pyrazin-6-yl)amino)ethyl)-4-methylphenyl)-5-methylnicotinamide]
IC50 [1]: < 300 nM
IC50 [2]: < 300 nM

Cc1cc(C(=O)Nc2cccc([C@H](C)Nc3cnc4cnn(C)c4n3)c2)cnc1CN1CCN(C)CC1 [Compound 243, (S)-5-methyl-N-(3-(1-((1-methyl-1H-pyrazolo[3,4-b]pyrazin-6-yl)amino)ethyl)phenyl)-6-((4-methylpiperazin-1-yl)methyl)nicotinamide]
IC50 [1]: < 300 nM
IC50 [2]: < 300 nM

CCOc1cncc(C(=O)Nc2cccc([C@H](C)Nc3cnc4cnn(C)c4n3)c2)c1 [Compound 242, (S)-5-ethoxy-N-(3-(1-((1-methyl-1H-pyrazolo[3,4-b]pyrazin-6-yl)amino)ethyl)phenyl)nicotinamide]
IC50 [1]: < 300 nM
IC50 [2]: < 300 nM

CCn1cc2ncc(N[C@@H](C)c3cccc(NC(=O)Cc4ccc(C(C)C)cn4)c3)nc2n1 [Compound 709, (S)-N-(3-(1-((2-ethyl-2H-pyrazolo[3,4-b]pyrazin-6-yl)amino)ethyl)phenyl)-2-(5-isopropylpyridin-2-yl)acetamide]
IC50 [1]: 300 to 1000 nM
IC50 [2]: ≥ 1000 nM

Cc1cncc(C(=O)Nc2cccc([C@H](C)Nc3cnc4[nH]c(-c5cnn(C)c5)nc4n3)c2)c1 [Compound 603, (S)-5-methyl-N-(3-(1-((2-(1-methyl-1H-pyrazol-4-yl)-1H-imidazo[4,5-b]pyrazin-5-yl)amino)ethyl)phenyl) nicotinamide]
IC50 [1]: < 300 nM
IC50 [2]: < 300 nM

CCn1cc2ncc(N[C@@H](C)c3cccc(NC(=O)Cc4ccc(Cl)c(F)c4)c3)nc2n1 [Compound 627, (S)-2-(4-chloro-3-fluorophenyl)-N-(3-(1-((2-ethyl-2H-pyrazolo[3,4-b]pyrazin-6-yl)amino)ethyl)phenyl)acetamide]
IC50 [1]: < 300 nM
IC50 [2]: 300 to 1000 nM

C[C@H](Nc1cnc2[nH]cc(-c3cnn(C)c3)c2n1)c1cccc(NC(=O)c2cnn(C3CC3)c2)c1 [Compound 581, (S)-1-cyclopropyl-N-(3-(1-((7-(1-methyl-1H-pyrazol-4-yl)-5H-pyrrolo[2,3-b]pyrazin-2-yl)amino)ethyl)phenyl)-1H-pyrazole-4-carboxamide]
IC50 [1]: < 300 nM
IC50 [2]: < 300 nM

CCn1cc2ncc(N[C@@H](C)c3cccc(NC(=O)c4ccc(C(F)(F)F)c(OC)c4)c3)nc2n1 [Compound 440, (S)-N-(3-(1-((2-ethyl-2H-pyrazolo[3,4-b]pyrazin-6-yl)amino)ethyl)phenyl)-3-methoxy-4-(trifluoromethyl) benzamide]
IC50 [1]: < 300 nM
IC50 [2]: < 300 nM

Cc1c[nH]c2ncc(N[C@@H](C)c3cccc(NC(=O)c4ccc(C(F)F)s4)c3)nc12 [Compound 560, (S)-5-(difluoromethyl)-N-(3-(1-((7-methyl-5H-pyrrolo[2,3-b]pyrazin-2-yl)amino)ethyl)phenyl)thiophene-2-carboxamide]
IC50 [1]: < 300 nM
IC50 [2]: < 300 nM

CCn1cc2ncc(N[C@@H](C)c3cccc(NC(=O)c4ccc(OC)nc4)c3)nc2n1 [Compound 285, (S)-N-(3-(1-((2-ethyl-2H-pyrazolo[3,4-b]pyrazin-6-yl)amino)ethyl)phenyl)-6-methoxynicotinamide]
IC50 [1]: 300 to 1000 nM
IC50 [2]: ≥ 1000 nM

CCn1cc2ncc(N[C@@H](C)c3cccc(NC(=O)c4ccc(CN(C)C)cc4)c3)nc2n1 [Compound 373, (S)-4-((dimethylamino)methyl)-N-(3-(1-((2-ethyl-2H-pyrazolo[3,4-b]pyrazin-6-yl)amino)ethyl)phenyl)benzamide]
IC50 [1]: < 300 nM
IC50 [2]: ≥ 1000 nM

CCn1cc2ncc(N[C@@H](C)c3cccc(NC(=O)c4ccc(CN5CC(O)C5)c(Cl)c4)c3)nc2n1 [Compound 487, (S)-3-chloro-N-(3-(1-((2-ethyl-2H-pyrazolo[3,4-b]pyrazin-6-yl)amino)ethyl)phenyl)-4-((3-hydroxyazetidin-1-yl)methyl) benzamide]
IC50 [1]: < 300 nM
IC50 [2]: < 300 nM

Cc1ncc(C(=O)Nc2cccc([C@H](C)Nc3cnc4cnn(C)c4n3)c2)s1 [Compound 138, (S)-2-methyl-N-(3-(1-((1-methyl-1H-pyrazolo[3,4-b]pyrazin-6-yl)amino)ethyl)phenyl)thiazole-5-carboxamide]
IC50 [1]: < 300 nM
IC50 [2]: < 300 nM

C[C@H](Nc1cnc2cnn(C)c2n1)c1cccc(NC(=O)c2ccc(S(C)(=O)=O)nc2)c1 [Compound 221, (S)-N-(3-(1-((1-methyl-1H-pyrazolo[3,4-b]pyrazin-6-yl)amino)ethyl)phenyl)-6-(methylsulfonyl)nicotinamide]
IC50 [1]: < 300 nM
IC50 [2]: < 300 nM

CCn1nc(C(C)C)cc1C(=O)Nc1cccc([C@H](C)Nc2cnc3cnn(C)c3n2)c1 [Compound 167, (S)-1-ethyl-3-isopropyl-N-(3-(1-((1-methyl-1H-pyrazolo[3,4-b]pyrazin-6-yl)amino)ethyl)phenyl)-1H-pyrazole-5-carboxamide]
IC50 [1]: < 300 nM
IC50 [2]: < 300 nM

C[C@H](Nc1cnc2cnn(C)c2n1)c1cccc(NC(=O)c2cnc3cnn(C)c3c2)c1 [Compound 48, (S)-1-methyl-N-(3-(1-((1-methyl-1H-pyrazolo[3,4-b]pyrazin-6-yl)amino)ethyl)phenyl)-1H-pyrazolo[4,3-b] pyridine-6-carboxamide]
IC50 [1]: < 300 nM
IC50 [2]: < 300 nM

Cc1cncc(C(=O)Nc2cccc([C@H](C)Nc3cnc4[nH]ncc4n3)c2)c1 [Compound 529, (S)-N-(3-(1-((1H-pyrazolo[3,4-b]pyrazin-5-yl)amino)ethyl)phenyl)-5-methylnicotinamide]
IC50 [1]: < 300 nM
IC50 [2]: < 300 nM

Cc1cc(C(=O)Nc2cccc([C@H](C)Nc3cnc4cnn(C)c4n3)c2)cnc1OCC(C)C [Compound 229, (S)-6-isobutoxy-5-methyl-N-(3-(1-((1-methyl-1H-pyrazolo[3,4-b]pyrazin-6-yl)amino)ethyl)phenyl)nicotinamide]
IC50 [1]: < 300 nM
IC50 [2]: < 300 nM

Cc1cncc(C(=O)Nc2cccc([C@H](C)Nc3cnc4[nH]nc(Cl)c4n3)c2)c1 [Compound 550, (S)-N-(3-(1-((3-chloro-1H-pyrazolo[3,4-b]pyrazin-5-yl)amino)ethyl)phenyl)-5-methylnicotinamide]
IC50 [1]: < 300 nM
IC50 [2]: < 300 nM
